Reference: the supplement of paper PMC10307832

Experiments:
Experiment in all cases: relative viability (nuclei count vs DMSO), 5 days (fraction); higher = more cells survive
[1] = compound: CC[C@H](C)N1C=C(C2=C(C=C(C=C21)C3=CN=C(C=C3)N4CCNCC4)C(=O)NCC5=C(C=C(NC5=O)C)C)C [GSK126] + C[C@@H](Oc1cc(-c2cnn(C3CCNCC3)c2)cnc1N)c1c(Cl)ccc(F)c1Cl [Crizotinib] (partner 1 µM)
How it was run: (§1)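 Lung cancer cell lines, seeded in 1536-well plates, were treated the following day by pin tool with a single drug or with five library-drug doses (not always all listed) in √10 steps on top of a fixed anchor-drug dose. Cells were fixed and nuclei stained in one step after 5 days, and nuclei were counted. Relative viability is the nuclei count for treated wells divided by that for vehicle wells, reported as medians of duplicate plates.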

[2] = compound: NS(=O)(=O)OC[C@@H]1C[C@@H](n2ccc3c(N[C@H]4CCc5ccccc54)ncnc32)C[C@@H]1O [MLN4924] + CCNC(=O)c1noc(-c2cc(C(C)C)c(O)cc2O)c1-c1ccc(CN2CCOCC2)cc1 [Luminespib] (partner 0.01 µM)
How it was run: as §1

[3] = compound: NS(=O)(=O)OC[C@@H]1C[C@@H](n2ccc3c(N[C@H]4CCc5ccccc54)ncnc32)C[C@@H]1O [MLN4924] + C[C@@H](Oc1cc(-c2cnn(C3CCNCC3)c2)cnc1N)c1c(Cl)ccc(F)c1Cl [Crizotinib] (partner 1 µM)
How it was run: as §1

[4] = compound: NS(=O)(=O)OC[C@@H]1C[C@@H](n2ccc3c(N[C@H]4CCc5ccccc54)ncnc32)C[C@@H]1O [MLN4924] + Nc1nc2[nH]cc(CCc3ccc(C(=O)N[C@@H](CCC(=O)O)C(=O)O)cc3)c2c(=O)[nH]1 [Pemetrexed] (partner 0.2 µM)
How it was run: as §1

Cell Line	relative viability ([1]; first compound 0.08 µM)	relative viability ([1]; first compound 0.253 µM)	relative viability ([1]; first compound 0.8 µM)	relative viability ([1]; first compound 2.53 µM)	relative viability ([1]; first compound 8 µM)	relative viability ([2]; first compound 0.04 µM)	relative viability ([2]; first compound 0.1265 µM)	relative viability ([2]; first compound 0.4 µM)	relative viability ([2]; first compound 1.265 µM)	relative viability ([2]; first compound 4 µM)	relative viability ([3]; first compound 0.04 µM)	relative viability ([3]; first compound 0.1265 µM)	relative viability ([3]; first compound 0.4 µM)	relative viability ([3]; first compound 1.265 µM)	relative viability ([3]; first compound 4 µM)	relative viability ([4]; first compound 0.04 µM)	relative viability ([4]; first compound 0.1265 µM)	relative viability ([4]; first compound 0.4 µM)	relative viability ([4]; first compound 1.265 µM)	relative viability ([4]; first compound 4 µM)
HCC-44	0.766	0.864	0.788	0.64	0.78	0.964	0.564	0.441	0.227	0.294	0.65	0.527	0.189	0.168	0.155	0.653	0.62	0.484	0.455	0.443
HCC-78	0.306	0.326	0.318	0.328	0.374						0.394	0.451	0.739	0.159	0.172	0.882	0.899	0.918	0.881	0.892
HCC-366	0.652	0.548	0.549	0.475	0.431						0.603	0.66	0.797	0.211	0.0183	0.161	0.153	0.129	0.107	0.0292
HCC-827	0.938	0.895	0.934	1.02	0.869	0.68	0.588	0.548	0.159	0.163	0.836	0.658	0.61	0.247	0.178	0.278	0.271	0.266	0.176	0.17
HOP-62	0.965	0.996	0.788	0.726	0.928	0.811	0.579	0.264	0.126	0.12	0.701	0.261	0.167	0.0427	0.0866	0.235	0.175	0.0617	0.0458	0.0811
IA-LM	0.831	1.12	0.79	0.729	0.947						0.314	0.211	0.134	0.0572	0.0763					
LC-2-ad	0.484	0.357	0.512	0.454	0.398	0.959	0.764	0.507	0.282	0.274	0.517	0.419	0.341	0.264	0.156	0.288	0.27	0.257	0.218	0.221
LCLC-97TM1	0.337		0.42	0.475	0.441	0.586	0.343	0.439	0.128	0.109	0.27	0.202	0.151	0.123	0.0984	0.147	0.18	0.0833	0.0476	0.0536
LCLC-103H	1.07	1.18	1.01	1.01	1	0.947	0.92	0.724	0.217	0.166	1.13	1.09	0.713	0.289	0.321	0.477	0.504	0.285	0.315	0.329
LK-2	0.282	0.224	0.243	0.252	0.206	0.234	0.173	0.192	0.212	0.182	0.222	0.319	0.321	0.27	0.236	0.25	0.248	0.203	0.117	0.106
LOU-NH91	0.759	0.71	0.737	0.773	0.727	0.334	0.3	0.281	0.246	0.303	0.706	0.743	0.652	0.489	0.398	0.367	0.366	0.393	0.385	0.343
LU99A	0.649	0.545	0.537	0.543	0.525	0.248	0.177	0.203	0.194	0.206	0.555	0.359	0.351	0.16	0.151	0.185	0.175	0.18	0.189	0.129
NCI-H522						1.08	0.709	0.851	0.433	0.467						0.876	0.859	0.612	0.323	0.383
NCI-H727	0.923	0.755	0.806	0.836	0.815	0.31	0.382	0.368	0.383	0.235	0.672	0.274	0.266	0.274	0.222					
NCI-H1299	0.952	0.959	0.779	0.941	0.873						0.875	0.825	0.4	0.252	0.246					
NCI-H1395						0.867	0.619	0.539	0.429	0.346						0.847	0.773	0.678	0.349	0.305
NCI-H1623						0.523	0.477	0.454	0.282	0.293										
NCI-H1648																0.748	0.76	0.559	0.321	0.359
NCI-H1703	0.806	0.313	0.42	0.592	0.583						0.214	0.159	0.187	0.109	0.0907					
NCI-H1793						0.162	0.125	0.182	0.297	0.148						0.892	0.698	0.914	0.433	0.303
NCI-H2342						0.773	0.757	0.682	0.723	0.464						0.796	0.787	0.815	0.714	0.559
SW 900						0.148	0.183	0.154	0.152	0.178							0.397	0.261	0.194	0.168
